{
  "source": "patent US12258329B2",
  "about": "(Merck Sharp & Dohme LLC, priority 2018, dated 2025)",
  "system": "infected PBMCs (VSV-G pseudotyped HIV virus VSV-G/pNLG1-P2A-ΔEnv)",
  "experiment": "cells",
  "type": "cell-based, human",
  "settings": "Homo sapiens, PBMC, read-out: TACK EC50",
  "data": [
    {"smiles": "Cc1nc(CF)c(Cn2cnc(C(F)(F)C(F)(F)F)c(Oc3cc(C(F)F)cc(C#N)c3C)c2=O)c(=O)[nH]1", "note": "[Example 64, 5-(difluoromethyl)-3-((1-((4-(fluoromethyl)-2-methyl-6-oxo-1,6-dihydropyrimidin-5-yl)methyl)-6-oxo-4-(perfluoroethyl)-1,6-dihydropyrimidin-5-yl)oxy)-2-methylbenzonitrile]", "values": [
      {"measurement": "EC50", "result": 162, "unit": "nM"}
    ]},
    {"smiles": "Cc1nc(C)c(Cn2cnc(C(F)(F)F)c(Oc3cc(Cl)cc(C#N)c3Cl)c2=O)c(=O)[nH]1", "note": "[Example 90, 2,5-dichloro-3-((1-((2,4-dimethyl-6-oxo-1,6-dihydropyrimidin-5-yl)methyl)-6-oxo-4-(trifluoromethyl)-1,6-dihydropyrimidin-5-yl)oxy) benzonitrile]", "values": [
      {"measurement": "EC50", "result": 489, "unit": "nM"}
    ]},
    {"smiles": "Cc1nc(C)c(Cn2cnc(C(F)(F)C(F)(F)F)c(Oc3c(Cl)cc(C#N)cc3Cl)c2=O)c(=O)[nH]1", "note": "[Example 96, 3,5-dichloro-4-((1-((2,4-dimethyl-6-oxo-1,6-dihydropyrimidin-5-yl)methyl)-6-oxo-4-(perfluoroethyl)-1,6-dihydropyrimidin-5-yl)oxy)benzonitrile]", "values": [
      {"measurement": "EC50", "result": 367, "unit": "nM"}
    ]},
    {"smiles": "Cc1nc(C)c(Cn2cnc(C(F)(F)C(F)F)c(Oc3cc(C#N)cc(C(F)F)c3)c2=O)c(=O)[nH]1", "note": "[Example 69, 3-(difluoromethyl)-5-((1-((2,4-dimethyl-6-oxo-1,6-dihydropyrimidin-5-yl)methyl)-6-oxo-4-(1,1,2,2-tetra-fluoroethyl)-1,6-dihydropyrimidin-5-yl)oxy)benzonitrile]", "values": [
      {"measurement": "EC50", "result": 340, "unit": "nM"}
    ]},
    {"smiles": "Cc1nc(N)c(Cn2cnc(C(F)(F)C(F)F)c(Oc3cc(C(F)F)cc(C#N)c3C)c2=O)c(=O)[nH]1", "note": "[Example 59, 3-((1-((4-amino-2-methyl-6-oxo-1,6-dihydropyrimidin-5-yl)methyl)-6-oxo-4-(1,1,2,2-tetrafluoroethyl)-1,6-dihydropyrimidin-5-yl)oxy)-5-(difluoromethyl)-2-methylbenzonitrile]", "values": [
      {"measurement": "EC50", "result": 135, "unit": "nM"}
    ]},
    {"smiles": "Cc1nc(C)c(Cn2cnc(C(F)(F)C(F)F)c(Oc3c(C)cc(C#N)cc3C)c2=O)c(=O)[nH]1", "note": "[Example 75, 4-((1-((2,4-dimethyl-6-oxo-1,6-dihydropyrimidin-5-yl)methyl)-6-oxo-4-(1,1,2,2-tetrafluoroethyl)-1,6-dihydropyrimidin-5-yl)oxy)-3,5-dimethylbenzonitrile]", "values": [
      {"measurement": "EC50", "result": 209, "unit": "nM"}
    ]},
    {"smiles": "Cc1nc(C)c(Cn2cnc(C(F)(F)C(F)F)c(Oc3c(C)cc(C#N)cc3C(F)F)c2=O)c(=O)[nH]1", "note": "[Example 20, 3-(difluoromethyl)-4-((1-((2,4-dimethyl-6-oxo-1,6-dihydropyrimidin-5-yl)methyl)-6-oxo-4-(1,1,2,2-tetrafluoroethyl)-1,6-dihydropyrimidin-5-y1)oxy)-5-methylbenzonitrile]", "values": [
      {"measurement": "EC50", "result": 365, "unit": "nM"}
    ]},
    {"smiles": "Cc1nc(C)c(Cn2cnc(C(F)(F)F)c(Oc3cc(C(F)F)cc(C#N)c3C)c2=O)c(=O)[nH]1", "note": "[Example 8, 5-(difluoromethyl)-3-((1-((2,4-dimethyl-6-oxo-1,6-dihydropyrimidin-5-y1)methyl)-6-oxo-4-(trifluoromethyl)-1,6-dihydropyrimidin-5-y1)oxy)-2-methylbenzonitrile]", "values": [
      {"measurement": "EC50", "result": 252, "unit": "nM"}
    ]},
    {"smiles": "Cc1nc(C2CC2)c(Cn2cnc(C(F)(F)C(F)F)c(Oc3cc(C(F)F)cc(C#N)c3C)c2=O)c(=O)[nH]1", "note": "[Example 62]", "values": [
      {"measurement": "EC50", "result": 406, "unit": "nM"}
    ]},
    {"smiles": "CCc1nc(C)[nH]c(=O)c1Cn1cnc(C(F)(F)C(F)(F)F)c(Oc2cc(C(F)F)cc(C#N)c2C)c1=O", "note": "[Example 63, 5-(difluoromethyl)-3-((1-((4-ethyl-2-methyl-6-oxo-1,6-dihydropyrimidin-5-yl)methyl)-6-oxo-4-(perfluoroethyl)-1,6-dihydropyrimidin-5-yl)oxy)-2-methylbenzonitrile]", "values": [
      {"measurement": "EC50", "result": 276, "unit": "nM"}
    ]},
    {"smiles": "Cc1c(C#N)cc(C(F)F)cc1Oc1c(C(F)(F)C(F)F)ncn(Cc2cnc(CCCO)[nH]c2=O)c1=O", "note": "[Example 46, 5-(difluoromethyl)-3-((1-((2-(3-hydroxypropyl)-6-oxo-1,6-dihydropyrimidin-5-yl)methyl)-6-oxo-4-(1,1,2,2-tetrafluoroethyl)-1,6-dihydropyrimidin-5-yl)oxy)-2-methylbenzonitrile]", "values": [
      {"measurement": "EC50", "result": 303, "unit": "nM"}
    ]},
    {"smiles": "Cc1ncc(Cn2cnc(C(F)(F)C(F)(F)F)c(Oc3cc(C(F)F)cc(C#N)c3C)c2=O)c(=O)[nH]1", "note": "[Example 67, 5-(difluoromethyl)-2-methyl-3-((1-((2-methyl-6-oxo-1,6-dihydropyrimidin-5-yl)methyl)-6-oxo-4-(perfluoroethyl)-1,6-dihydropyrimidin-5-yl)oxy)benzonitrile]", "values": [
      {"measurement": "EC50", "result": 174, "unit": "nM"}
    ]},
    {"smiles": "Cc1nc(C(F)F)c(Cn2cnc(C(F)(F)C(F)(F)F)c(Oc3cc(C(F)F)cc(C#N)c3C)c2=O)c(=O)[nH]1", "note": "[Example 65, 5-(difluoromethyl)-3-((1-((4-(difluoromethyl)-2-methyl-6-oxo-1,6-dihydropyrimidin-5-yl)methyl)-6-oxo-4-(perfluoroethyl)-1,6-dihydropyrimidin-5-yl)oxy)-2-methylbenzonitrile]", "values": [
      {"measurement": "EC50", "result": 382, "unit": "nM"}
    ]},
    {"smiles": "Cc1nc(C)c(Cn2cnc(C(F)(F)C(F)(F)F)c(Oc3cc(Br)cc(C#N)c3Cl)c2=O)c(=O)[nH]1", "note": "[Example 82, 5-bromo-2-chloro-3-((1-((2,4-dimethyl-6-oxo-1,6-dihydro-pyrimidin-5-yl)methyl)-6-oxo-4-(perfluoroethyl)-1,6-dihydro-pyrimidin-5-yl)oxy)benzonitrile]", "values": [
      {"measurement": "EC50", "result": 531, "unit": "nM"}
    ]},
    {"smiles": "Cc1nc(CO)[nH]c(=O)c1Cn1cnc(C(F)(F)C(F)F)c(Oc2cc(C(F)F)cc(C#N)c2C)c1=O", "note": "[Example 48, 5-(difluoromethyl)-3-((1-((2-(hydroxymethyl)-4-methyl-6-oxo-1,6-dihydropyrimidin-5-yl)methyl)-6-oxo-4-(1,1,2,2-tetrafluoroethyl)-1,6-dihydropyrimidin-5-yl)oxy)-2-methylbenzonitrile]", "values": [
      {"measurement": "EC50", "result": 342, "unit": "nM"}
    ]},
    {"smiles": "Cc1nc(C)c(Cn2cnc(C(F)(F)C(F)(F)F)c(Oc3c(F)ccc(C#N)c3F)c2=O)c(=O)[nH]1", "note": "[Example 71, 3-((1-((2,4-dimethyl-6-oxo-1,6-dihydropyrimidin-5-yl)methyl)-6-oxo-4-(perfluoroethyl)-1,6-dihydropyrimidin-5-yl)oxy)-2,4-difluorobenzonitrile]", "values": [
      {"measurement": "EC50", "result": 149, "unit": "nM"}
    ]},
    {"smiles": "Cc1nc(N)c(Cn2cnc(C(F)(F)F)c(Oc3cc(C(F)F)cc(C#N)c3C)c2=O)c(=O)[nH]1", "note": "[Example 60, 3-((1-((4-amino-2-methyl-6-oxo-1,6-dihydropyrimidin-5-yl)methyl)-6-oxo-4-(trifluoromethyl)-1,6-dihydropyrimidin-5-yl)oxy)-5-(difluoromethyl)-2-methylbenzonitrile]", "values": [
      {"measurement": "EC50", "result": 228, "unit": "nM"}
    ]},
    {"smiles": "Cc1nc(C)c(Cn2cnc(C(C)(F)F)c(Oc3cc(C#N)cc(C(F)F)c3)c2=O)c(=O)[nH]1", "note": "[Example 23, 3-((4-(1,1-difluoroethyl)-1-((2,4-dimethyl-6-oxo-1,6-dihydropyrimidin-5-yl)methyl)-6-oxo-1,6-dihydropyrimidin-5-yl)oxy)-5-(difluoromethyl)benzonitrile]", "values": [
      {"measurement": "EC50", "result": 429, "unit": "nM"}
    ]},
    {"smiles": "Cc1nc[nH]c(=O)c1Cn1cnc(C(F)(F)C(F)F)c(Oc2cc(C(F)F)cc(C#N)c2C)c1=O", "note": "[Example 79, 5-(difluoromethyl)-2-methyl-3-((1-((4-methyl-6-oxo-1,6-dihydropyrimidin-5-yl)methyl)-6-oxo-4-(1,1,2,2-tetra-fluoroethyl)-1,6-dihydropyrimidin-5-yl)oxy)benzonitrile]", "values": [
      {"measurement": "EC50", "result": 460, "unit": "nM"}
    ]}
  ]
}
